From US20260022246A1, “COLORING AGENT COMPOSITION, FILM, OPTICAL FILTER, AND NEAR INFRARED ABSORBING COMPOUND” (FUJIFILM Corporation, priority 2023, published 2026)

What was measured:
Type in all cases: physicochemical
[1] = Evaluation of absorption spectrum (maximal absorption wavelength in chloroform solution); conditions: for Near infrared absorbing property: grade of λmax in chloroform solution; for λmax (maximal absorption wavelength): chloroform solution, 3.0×10^−5 mol/L, 1 mm quartz cell
Description: The specific compound is diluted with chloroform to a concentration of […], and an absorbance of the obtained sample solution is measured with a spectrophotometer (UV-3600 Plus, manufactured by Shimadzu Corporation) using a 1 mm quartz cell. A maximal absorption wavelength (Amax) is measured from an absorption spectrum of the sample solution.
For each of Exemplary Compounds shown in Tables 1 and 2, a sample solution was prepared by diluting the compound with chloroform to a concentration of 3.0×10^−5 mol/L, and near infrared absorbability was evaluated.
For each sample solution, an absorbance was measured in a 1 mm quartz cell using a spectrophotometer (UV-3600 Plus, manufactured by Shimadzu Corporation).
A maximal absorption wavelength (Amax) was measured from the absorption spectrum of each sample solution. The results are shown in Tables 1 and 2, and the wavelength of Amax was evaluated according to the following standard.
• A: Amax was 1,150 nm or more. • B: Amax was less than 1,150 nm.

[2] = Evaluation of solubility in methyl ethyl ketone (MEK); conditions: stirred at room temperature for 30 minutes
Description: For each of Exemplary Compounds shown in Tables 1 and 2, a predetermined amount of the compound was added to a solvent of methyl ethyl ketone (MEK), and solubility was evaluated according to the following standard by stirring the mixture at room temperature for 30 minutes.
• A: 1 g or more of the compound was stably dissolved in 300 g of MEK. • B: 1 g was not dissolved in 300 g of MEK. • X: decomposition was observed by measuring the absorption spectrum after the dissolution.

[3] = Evaluation of heat stability of polystyrene resin film (hot plate 180° C., 5 minutes); conditions: polystyrene resin film on glass, hot plate 180° C. for 5 minutes, absorbance reduction rate at λmax
Description: 30 mg of each of Exemplary Compounds and the comparative compounds described in the tables was dissolved in 8.9 g of methyl ethyl ketone and 1.1 g of a polystyrene resin (manufactured by Sigma-Aldrich Co. LLC) to prepare a resin composition.
The obtained resin composition was spin-coated on a glass substrate to form a coating film, and the obtained coating film was dried at 60° C. for 2 minutes to produce a resin film. […]
• A: absorbance reduction rate of Amax was less than 5%. • B: absorbance reduction rate of Amax was 5% or more and less than 10%. • C: absorbance reduction rate of Amax was 10% or more and less than 50%. • D: absorbance reduction rate of Amax was 50% or more. • X: solubility was insufficient, so that the film cannot be produced, which was not evaluable.

SMILES	Near infrared absorbing property [1]	Solubility in solvent [2]	Heat stability of resin composition [3]	λmax (maximal absorption wavelength) [1]
Cc1ccc(N(c2ccc(C)cc2)c2ccc([N+](=C3C=CC(=[N+](c4ccc(N(c5ccc(C)cc5)c5ccc(C)cc5)cc4)c4ccc(N(c5ccc(C)cc5)c5ccc(C)cc5)cc4)C=C3)c3ccc(N(c4ccc(C)cc4)c4ccc(C)cc4)cc3)cc2)cc1 [A-1]	A (Amax was 1,150 nm or more)	A (1 g or more of the compound was stably dissolved in 300 g of MEK)	A (absorbance reduction rate of Amax was less than 5%)	
Cc1cc(C)c(N(c2ccc([N+](=C3C=CC(=[N+](c4ccc(N(c5c(C)cc(C)cc5C)c5c(C)cc(C)cc5C)cc4)c4ccc(N(c5c(C)cc(C)cc5C)c5c(C)cc(C)cc5C)cc4)C=C3)c3ccc(N(c4c(C)cc(C)cc4C)c4c(C)cc(C)cc4C)cc3)cc2)c2c(C)cc(C)cc2C)c(C)c1 [A-3]	A (Amax was 1,150 nm or more)	A (1 g or more of the compound was stably dissolved in 300 g of MEK)	A (absorbance reduction rate of Amax was less than 5%)	
COc1ccc(N(c2ccc(OC)cc2)c2ccc([N+](=C3C=CC(=[N+](c4ccc(N(c5ccc(OC)cc5)c5ccc(OC)cc5)cc4)c4ccc(N(c5ccc(OC)cc5)c5ccc(OC)cc5)cc4)C=C3)c3ccc(N(c4ccc(OC)cc4)c4ccc(OC)cc4)cc3)cc2)cc1.[O-][Cl+3]([O-])([O-])[O-].[O-][Cl+3]([O-])([O-])[O-] [A-6]	A (Amax was 1,150 nm or more)	A (1 g or more of the compound was stably dissolved in 300 g of MEK)	A (absorbance reduction rate of Amax was less than 5%)	1248 nm
FC(F)(F)c1ccc(N(c2ccc([N+](=C3C=CC(=[N+](c4ccc(N(c5ccc(C(F)(F)F)cc5)c5ccc(C(F)(F)F)cc5)cc4)c4ccc(N(c5ccc(C(F)(F)F)cc5)c5ccc(C(F)(F)F)cc5)cc4)C=C3)c3ccc(N(c4ccc(C(F)(F)F)cc4)c4ccc(C(F)(F)F)cc4)cc3)cc2)c2ccc(C(F)(F)F)cc2)cc1.[O-][Cl+3]([O-])([O-])[O-].[O-][Cl+3]([O-])([O-])[O-] [A-7]	A (Amax was 1,150 nm or more)	A (1 g or more of the compound was stably dissolved in 300 g of MEK)	A (absorbance reduction rate of Amax was less than 5%)	1162 nm
CCCCc1ccc(N(c2ccc(CCCC)cc2)c2ccc([N+](=C3C=CC(=[N+](c4ccc(N(c5ccc(CCCC)cc5)c5ccc(CCCC)cc5)cc4)c4ccc(N(c5ccc(CCCC)cc5)c5ccc(CCCC)cc5)cc4)C=C3)c3ccc(N(c4ccc(CCCC)cc4)c4ccc(CCCC)cc4)cc3)cc2)cc1.[O-][Cl+3]([O-])([O-])[O-].[O-][Cl+3]([O-])([O-])[O-] [A-8]	A (Amax was 1,150 nm or more)	A (1 g or more of the compound was stably dissolved in 300 g of MEK)	A (absorbance reduction rate of Amax was less than 5%)	1210 nm
N#Cc1ccc(N(c2ccc(C#N)cc2)c2ccc([N+](=C3C=CC(=[N+](c4ccc(N(c5ccc(C#N)cc5)c5ccc(C#N)cc5)cc4)c4ccc(N(c5ccc(C#N)cc5)c5ccc(C#N)cc5)cc4)C=C3)c3ccc(N(c4ccc(C#N)cc4)c4ccc(C#N)cc4)cc3)cc2)cc1.[O-][Cl+3]([O-])([O-])[O-].[O-][Cl+3]([O-])([O-])[O-] [A-9]	A (Amax was 1,150 nm or more)	A (1 g or more of the compound was stably dissolved in 300 g of MEK)	A (absorbance reduction rate of Amax was less than 5%)	1170 nm
N#Cc1ccc(N(c2ccc([N+](=C3C=CC(=[N+](c4ccc(N(c5ccc(C#N)c(F)c5)c5ccc(C#N)c(F)c5)cc4)c4ccc(N(c5ccc(C#N)c(F)c5)c5ccc(C#N)c(F)c5)cc4)C=C3)c3ccc(N(c4ccc(C#N)c(F)c4)c4ccc(C#N)c(F)c4)cc3)cc2)c2ccc(C#N)c(F)c2)cc1F [A-19]	A (Amax was 1,150 nm or more)	A (1 g or more of the compound was stably dissolved in 300 g of MEK)	A (absorbance reduction rate of Amax was less than 5%)	1165 nm
COc1cc(C)c(N(c2ccc([N+](=C3C=CC(=[N+](c4ccc(N(c5c(C)cc(OC)cc5C)c5c(C)cc(OC)cc5C)cc4)c4ccc(N(c5c(C)cc(OC)cc5C)c5c(C)cc(OC)cc5C)cc4)C=C3)c3ccc(N(c4c(C)cc(OC)cc4C)c4c(C)cc(OC)cc4C)cc3)cc2)c2c(C)cc(OC)cc2C)c(C)c1.[O-][Cl+3]([O-])([O-])[O-].[O-][Cl+3]([O-])([O-])[O-] [A-22]	A (Amax was 1,150 nm or more)	A (1 g or more of the compound was stably dissolved in 300 g of MEK)	A (absorbance reduction rate of Amax was less than 5%)	1308 nm
COC(=O)c1cccc(N(c2ccc([N+](=C3C=CC(=[N+](c4ccc(N(c5cccc(C(=O)OC)c5)c5cccc(C(=O)OC)c5)cc4)c4ccc(N(c5cccc(C(=O)OC)c5)c5cccc(C(=O)OC)c5)cc4)C=C3)c3ccc(N(c4cccc(C(=O)OC)c4)c4cccc(C(=O)OC)c4)cc3)cc2)c2cccc(C(=O)OC)c2)c1.[O-][Cl+3]([O-])([O-])[O-].[O-][Cl+3]([O-])([O-])[O-] [A-26]	A (Amax was 1,150 nm or more)	A (1 g or more of the compound was stably dissolved in 300 g of MEK)	A (absorbance reduction rate of Amax was less than 5%)	1232 nm
Cc1ccc(N(c2ccc(C)cc2)c2ccc([N+](=C3C=CC(=[N+](c4ccc(N(c5ccc(C)cc5)c5ccc(C)cc5)cc4)c4ccc(N(c5ccc(C)cc5)c5ccc(C)cc5)cc4)C=C3)c3ccc(N(c4ccc(C)cc4)c4ccc(C)cc4)cc3)cc2)cc1 [A-28]	A (Amax was 1,150 nm or more)	A (1 g or more of the compound was stably dissolved in 300 g of MEK)	A (absorbance reduction rate of Amax was less than 5%)	1209 nm
Cc1ccc(N(c2ccc(C)cc2)c2ccc([N+](=C3C=CC(=[N+](c4ccc(N(c5ccc(C)cc5)c5ccc(C)cc5)cc4)c4ccc(N(c5ccc(C)cc5)c5ccc(C)cc5)cc4)C=C3)c3ccc(N(c4ccc(C)cc4)c4ccc(C)cc4)cc3)cc2)cc1.F[B-](F)(F)F.F[B-](F)(F)F [A-29]	A (Amax was 1,150 nm or more)	A (1 g or more of the compound was stably dissolved in 300 g of MEK)	A (absorbance reduction rate of Amax was less than 5%)	1209 nm
Cc1ccc(N(c2ccc(C)cc2)c2ccc([N+](=C3C=CC(=[N+](c4ccc(N(c5ccc(C)cc5)c5ccc(C)cc5)cc4)c4ccc(N(c5ccc(C)cc5)c5ccc(C)cc5)cc4)C=C3)c3ccc(N(c4ccc(C)cc4)c4ccc(C)cc4)cc3)cc2)cc1.F[P-](F)(F)(F)(F)F.F[P-](F)(F)(F)(F)F [A-30]	A (Amax was 1,150 nm or more)	A (1 g or more of the compound was stably dissolved in 300 g of MEK)	A (absorbance reduction rate of Amax was less than 5%)	1209 nm
Cc1ccc(N(c2ccc(C)cc2)c2ccc([N+](=C3C=CC(=[N+](c4ccc(N(c5ccc(C)cc5)c5ccc(C)cc5)cc4)c4ccc(N(c5ccc(C)cc5)c5ccc(C)cc5)cc4)C=C3)c3ccc(N(c4ccc(C)cc4)c4ccc(C)cc4)cc3)cc2)cc1.O=S(=O)([C-](S(=O)(=O)C(F)(F)F)S(=O)(=O)C(F)(F)F)C(F)(F)F.O=S(=O)([C-](S(=O)(=O)C(F)(F)F)S(=O)(=O)C(F)(F)F)C(F)(F)F [A-34]	A (Amax was 1,150 nm or more)	A (1 g or more of the compound was stably dissolved in 300 g of MEK)	A (absorbance reduction rate of Amax was less than 5%)	1211 nm
